Source: patent publication US8440654B2, “Thieno- and furo-pyrimidine modulators of the histamine H4 receptor” (Janssen Pharmaceutica NV, priority 2007, dated 2013)
Counter-ions that a name gives are not always drawn.

biological target: T1, human histamine H4 receptor (Homo sapiens, UniProt Q9H3N8); assay: Binding Assay on Recombinant Human Histamine H4 Receptor; settings: competition binding with 3H-histamine, membranes of SK-N-MC or COS7 cells transfected with human H4R; average of results obtained
T1 construct: expressed in transfected cells; host or cells: SK-N-MC cells or COS7 cells, transiently transfected with pH4R; membrane preparation
Experimental: Biological Methods: Binding Assay on Recombinant Human Histamine H4 Receptor.
SK-N-MC cells or COS7 cells were transiently transfected with pH4R and grown in 150 cm^2 tissue culture dishes. Cells were washed with saline solution, scraped with a cell scraper and collected by centrifugation (1000 rpm, 5 min). Cell membranes were prepared by homogenization of the cell pellet in 20 mM Tris-HCl with a polytron tissue homogenizer for 10 sec at high speed. Homogenate was centrifuged at 1000 rpm for 5 min at 4° C. The supernatant was then collected and centrifuged at 20,000×g for 25 min at 4° C. The final pellet was resuspended in 50 mM Tris-HCl. Cell membranes were incubated with ^3H-histamine (5-70 nM) in the presence or absence of excess histamine (10,000 nM). Incubation occurred at room temperature for 45 min. Membranes were harvested by rapid filtration over Whatman GF/C filters and washed 4 times with ice-cold 50 mM Tris HCl. Filters were then dried, mixed with scintillant and counted for radioactivity. SK-N-MC or COS7 cells expressing human histamine H4 receptor were used to measure the affinity of binding of other compounds and their ability to displace ^3H-ligand binding by incubating the above-described reaction in the presence of various concentrations of inhibitor or compound to be tested. For competition binding studies using ^3H-histamine, K values were calculated, based on an experimentally determined KD value of 5 nM and a ligand concentration of 5 nM, according to Y.-C.

Ki | Compound
5 nM | CN[C@H]1CCN(c2nc(N)nc3c4c(sc23)CCCC4)C1 (single isomer, unassigned) [Example 31]
182 nM | CNC1CCN(c2nc(N)nc3c(C)csc23)C1 (stereo in doubt) [Example 12, 7-Methyl-4-[(3R)-3-(methylamino)pyrrolidin-1-yl]thieno[3,2-d]pyrimidin-2-amine]
221 nM | CC(C)(C)c1cc2nc(N)nc(N3CCC(N)C3)c2s1 (stereo in doubt) [Example 18, 4-[(3R)-3-Aminopyrrolidin-1-yl]-6-tert-butylthieno[3,2-d]pyrimidin-2-amine trifluoroacetic acid salt]
3 nM | CNC1CCN(c2nc(N)nc3c4c(oc23)CCCC4)C1 (stereo in doubt) [Example 21, 4-[(3R)-3-(Methyl-amino)pyrrolidin-1-yl]-6,7,8,9-tetrahydro[1]benzo-furo[3,2-d]pyrimidin-2-amine trifluoro acid salt]
66 nM | CNC1CCN(c2ncnc3c4c(oc23)CCCC4)C1 (stereo in doubt) [Example 28, (3R)-N-Methyl-1-(6,7,8,9-tetrahydro[1]benzofuro[3,2-d]pyrimidin-4-yl)pyrrolidin-3-amine]
503 nM | CCNC1CCN(c2nc(N)nc3c4c(sc23)CCCC4)C1 (stereo in doubt) [Example 40, 4-[(3R)-3-(Ethyl-amino)pyrrolidin-1-yl]-6,7,8,9-tetrahydro[1]benzo-thieno[3,2-d]pyrimidin-2-amine trifluoroacetic acid salt]
5 nM | CNC1CCN(c2nc(N)nc3c4c(sc23)CCCCC4)C1 (stereo in doubt) [Example 47, trifluoroacetic acid salt]
10 nM | Nc1nc(N2CCC(N)C2)c2sc3c(c2n1)CCCC3 (stereo in doubt) [Example 56, 4-[(3R)-3-Aminopyrrolidin-1-yl]-6,7,8,9-tetrahy-dro[1]benzothieno[3,2-d]pyrimidin-2-amine trifluoracetic acid salt]
13 nM | CN1CCN(c2nc(N)nc3c4c(sc23)CCCC4)CC1 [Example 2, 4-(4-Methyl-piperazin-1-yl)-6,7,8,9-tetrahydro-benzo[4,5]thieno[3,2-d]pyrimidin-2-ylamine]
23 nM | Nc1nc(N2CCNCC2)c2sc3c(c2n1)CCCC3 [Example 3, 4-piperazin-1-yl-6,7,8,9-tetrahydro-benzo[4,5]thieno[3,2-d]pyrimidin-2-ylamine]
8 nM | CN1CCN(c2nc(N)nc3c4c(oc23)CCCC4)CC1 [Example 5, 4-(4-Methyl-piperazin-1-yl)-6,7,8,9-tetrahydro-benzo[4,5]furo[3,2-d]pyrimidin-2-ylamine]
5 nM | Nc1nc(N2CCNCC2)c2oc3c(c2n1)CCCC3 [Example 6, 4-piperazin-1-yl-6,7,8,9-tetrahydro-benzo[4,5]furo[3,2-d]pyrimidin-2-ylamine]
53 nM | CN1CCN(c2ncnc3c4c(oc23)CCCC4)CC1 [Example 8, 4-(4-Methyl-piperazin-1-yl)-6,7,8,9-tetrahydro-benzo[4,5]furo[3,2-d]pyrimidine]
132 nM | CN1CCN(c2ncnc3c4c(sc23)CCCC4)CC1 [Example 10, 4-(4-Methyl-piperazin-1-yl)-6,7,8,9-tetrahydro-benzo[4,5]thieno[3,2-d]pyrimidine]
286 nM | CN1CCN(c2nc(N)nc3cc(C(C)(C)C)sc23)CC1 [Example 15, 6-tert-Butyl-4-(4-methyl-piperazin-1-yl)thieno[3,2-d]pyrimidin-2-amine trifluoroacetic acid salt]
71 nM | CN[C@H]1CCN(c2nc(N)nc3cc(C(C)(C)C)sc23)C1 [Example 16, trifluoroacetic acid salt]
142 nM | CC(C)(C)c1cc2nc(N)nc(N3CCNCC3)c2s1 [Example 17, 6-tert-Butyl-4-piperazin-1-ylthieno[3,2-d]pyrimidin-2-amine trifluoroacetic acid salt]
3 nM | Nc1nc(N2CCCNCC2)c2oc3c(c2n1)CCCC3 [Example 22, 4-(1,4-Diazepan-1-yl)-6,7,8,9-tetrahydro[1]benzo-furo[3,2-d]pyrimidin-2-amine trifluoroacetic acid salt]
83 nM | Nc1nc(N2CC(N)C2)c2oc3c(c2n1)CCCC3 [Example 23, 4-(3-Aminoazetidin-1-yl)-6,7,8,9-tetrahydro[1]benzo-furo[3,s-d]pyrimidin-2-amine trifluoroacetic acid salt]
2 nM | Nc1nc(N2CC[C@@H](N)C2)c2oc3c(c2n1)CCCC3 [Example 24, 4-[(3R)-3-Aminopyrrolidin-1-yl-6,7,8,9-tetra-hydro[1]benzofuro[3,2-d]pyrimidin-2-aminetrifluoroacetic acid salt]
507 nM | NCCNc1nc(N)nc2c3c(oc12)CCCC3 [Example 25, N4-(2-Aminoethyl)-6,7,8,9-tetrahydro[1]benzofuro[3,2-d]pyrimidine-2,4-diamine trifluoroacetic acid salt]
> 10000 nM | NCCNc1ncnc2c3c(oc12)CCCC3 [Example 27, N-(6,7,8,9-Tetra-hydro[1]benzofuro[3,2-d]pyrimidin-4-yl]ethane-1,2-diamine]
123 nM | Nc1nc(N2CCC[C@H](N)C2)c2sc3c(c2n1)CCCC3 [Example 34, 4-[(3S)-3-Aminopiperidin-1-yl]-6,7,8,9-tetrahydro[1]ben-zothieno[3,2-d]pyrimidin-2-amine]
15 nM | Nc1nc(N2CCCNCC2)c2sc3c(c2n1)CCCC3 [Example 37, 4-(1,4-Diazepan-1-yl)-6,7,8,9-tetrahydro[1]benzo-thieno[3,2-d]pyrimidin-2-amine hydrochloric acid salt]

Compound | Ki
4-[(1S,4S)-2,5-Diazabi- cyclo]2.2.1-2-yl]hept-2-yl]- 6,7,8,9-tetrahydro[1]benzo- thieno[3,2-d]pyrimidin-2- amine [Example 35] | 417 nM
CNC1CCN(c2nc(N)nc3c(Br)csc23)C1 (stereo in doubt) [Example 14, 7-Bromo-4-(3R)-3-(methyl-amino)pyrrolidin-1-yl-d]pyrimidin-2-amine tri-fluoroacetic acid salt] | 1050 nM
CN1CCN(c2nc(N)nc3ccsc23)CC1 [Example 1, 4-(4-Methyl-piperazin-1-yl)-thieno[3,2-d]pyrimidin-2-ylamine] | 503 nM
Nc1nc(N2C[C@H]3CCN[C@H]3C2)c2sc3c(c2n1)CCCC3 [Example 4, 4-[(3aR,6aR)-Hexahydropyrrolo[3,4-b]pyrrol-5(1H)-yl]-6,7,8,9-tetrahydro[1]benzothieno[3,2-d]pyrimidin-2-amine] | 21 nM
Nc1nc(N2C[C@H]3CCN[C@H]3C2)c2oc3c(c2n1)CCCC3 [Example 7, 4-[(3aR,6aR)-Hexahydropyrrolo[3,4-b]pyrrol-5(1H)-yl]-6,7,8,9-tetrahydro[1]benzofuro[3,2-d]pyrimidin-2-amine] | 3 nM
c1nc(N2CCNCC2)c2oc3c(c2n1)CCCC3 [Example 9, 4-piperazin-1-yl-6,7,8,9-tetrahydro-benzo[4,5]furo[3,2-d]pyrimidine] | 110 nM
c1nc(N2CCNCC2)c2sc3c(c2n1)CCCC3 [Example 11, 4-piperazin-1-yl-6,7,8,9-tetrahydro-benzo[4,5]thieno[3,2-d]pyrimidine] | 454 nM
Cc1csc2c(N3CCN(C)CC3)nc(N)nc12 [Example 13, 7-Methyl-4-(4-methyl-piperazin-1-yl)thieno-amine trifluoroacetic acid salt] | 574 nM
CC(C)(C)c1cc2nc(N)nc(N3CC4CCCNC4C3)c2s1 (stereo not drawn) [Example 19, 6-tert-Butyl-4-(octahydro-6H-pyrrolo[3,4-b]pyridin-6-yl)thieno[3,2-d]pyrimidin-2-amine trifluoroacetic acid salt] | 244 nM
Nc1nc(N2C[C@H]3CCCN[C@H]3C2)c2oc3c(c2n1)CCCC3 [Example 20, 4-[(4aR,7aR)-Octahydro-6H-pyrrolo[3,4-b]pyridin-6-yl]-6,7,8,9-tetra-hydro[1]benzofuro[3,2-d]pyrimidin-2-amine trifluoroacetic acid salt] | 5 nM
Nc1nc(N2CC3CCC(C2)N3)c2oc3c(c2n1)CCCC3 [Example 26, 4-(3,8-Diazabi-cyclo[3.2.1]oct-3-yl)-6,7,8,9-tetrahydro[1]benzofuro[3,2-d]pyrimidin-2-amine] | 32 nM
Nc1nc(N2C[C@H]3CCCN[C@H]3C2)c2sc3c(c2n1)CCCC3 [Example 32, 4-[(4aR,7aR)-Octahydro-6H-pyrrolo[3,4-b]pyridin-6-yl]-6,7,8,9-tetrahydro[1]benzo-thieno[3,2-,d]pyrimidin-2-amine] | 2 nM
Nc1nc(N2C[C@H]3CNC[C@H]3C2)c2sc3c(c2n1)CCCC3 [Example 33] | 390 nM
Nc1nc(N2C[C@H]3C[C@@H]2CN3)c2sc3c(c2n1)CCCC3 [Example 36, 4-[(1R,4R)-2,5-Diazabicy-clo[2.2.1]hept-2-yl]-6,7,8,9-tetrahydro[1]benzothi-eno[3,2-d]pyrimidin-2-amine] | > 10000 nM
CN[C@@H]1CN(c2nc(N)nc3c4c(sc23)CCCC4)C[C@@H]1O [Example 38, (3S,4S)-1-(2-Amino-6,7,8,9-tetrahydro[1]benzothieno[3,2-d]pyrimidin-4-yl)-4-(methyl-amino)pyrrolidin-3-of tri-fluoroacetic acid salt] | 300 nM
